Measured values as given in ChEMBL document CHEMBL1201862, “PubChem BioAssay data set” (2004).
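Growth conditions: 96-well plates. Treatment: test compound, 48 hours, 5 concentrations. Analysis: linear interpolation between bracketing concentrations; unreached endpoints set to highest concentration. Here, GI50 denotes the concentration required for 50% inhibition of growth.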 The source made the active and inactive calls. Cut-off read from the data, not from the text of the source: active = GI50 up to about 1.1 µM and inactive = higher.

Tests used:
Assay in all cases: DTP human tumour cell line panel, 48 h
KM12 = system: KM12
OVCAR-3 = system: OVCAR-3
K562 = system: K562
HT-29 = system: HT-29
SK-MEL-5 = system: SK-MEL-5
NCI-H460 = system: NCI-H460
ACHN = system: ACHN
OVCAR-5 = system: OVCAR-5
RXF 393 = system: RXF 393
SNB-19 = system: SNB-19
COLO 205 = system: COLO 205
NCI-H226 = system: NCI-H226
CAKI-1 = system: CAKI-1
SR = system: SR
BT-549 = system: BT-549
Malme-3M = system: Malme-3M

Measured: GI50

CCOC(=O)C1C(=O)CC(C)(O)C(C(=O)OCC)C1c1ccc(N(C)C)cc1 (configuration not stated)
inactive: KM12 > 100 µM | OVCAR-3 > 100 µM | K562 > 100 µM | HT-29 > 100 µM | SK-MEL-5 > 100 µM | NCI-H460 > 100 µM | ACHN > 100 µM | OVCAR-5 > 100 µM | RXF 393 > 100 µM | SNB-19 > 100 µM | COLO 205 > 100 µM | NCI-H226 > 100 µM | CAKI-1 > 100 µM | SR > 100 µM | BT-549 > 100 µM | Malme-3M > 100 µM

COC(=O)C1=COc2c(n(C)c3ccccc23)-c2ccccc21
inactive: KM12 > 100 µM | OVCAR-3 > 100 µM | K562 > 100 µM | HT-29 > 100 µM | SK-MEL-5 71.1 µM | NCI-H460 > 100 µM | ACHN 74 µM | OVCAR-5 > 100 µM | RXF 393 > 100 µM | SNB-19 > 100 µM | COLO 205 > 100 µM | NCI-H226 > 100 µM | CAKI-1 > 100 µM | SR 4.21 µM | BT-549 > 100 µM | Malme-3M > 100 µM

COc1ccc2c(O)c(S(=O)(=O)c3ccc(C)cc3)c(=O)oc2c1OC
inactive: KM12 > 100 µM | OVCAR-3 > 100 µM | K562 > 100 µM | HT-29 > 100 µM | SK-MEL-5 > 100 µM | NCI-H460 > 100 µM | ACHN > 100 µM | OVCAR-5 > 100 µM | RXF 393 > 100 µM | SNB-19 > 100 µM | COLO 205 > 100 µM | NCI-H226 > 100 µM | CAKI-1 > 100 µM | SR > 100 µM | BT-549 > 100 µM | Malme-3M > 100 µM

COC(=O)N/N=C(\C)C(CN1CCOCC1)C(c1ccccc1)c1cc2ccccc2oc1=O (configuration not stated)
inactive: KM12 > 100 µM | OVCAR-3 > 100 µM | K562 70.5 µM | HT-29 > 100 µM | SK-MEL-5 > 100 µM | NCI-H460 > 100 µM | ACHN > 100 µM | OVCAR-5 > 100 µM | RXF 393 72.1 µM | SNB-19 > 100 µM | COLO 205 52.6 µM | NCI-H226 > 100 µM | CAKI-1 > 100 µM | SR 23.9 µM | BT-549 68.7 µM | Malme-3M 62.5 µM

O=C(Nc1nc(C23CC4CC(CC(C4)C2)C3)cs1)c1c(O)c2ccccc2[nH]c1=O
inactive: KM12 > 100 µM | OVCAR-3 > 100 µM | K562 > 100 µM | HT-29 > 100 µM | SK-MEL-5 > 100 µM | NCI-H460 > 100 µM | ACHN > 100 µM | OVCAR-5 > 100 µM | RXF 393 53.6 µM | SNB-19 > 100 µM | COLO 205 > 100 µM | NCI-H226 > 100 µM | CAKI-1 > 100 µM | SR > 100 µM | BT-549 > 100 µM | Malme-3M > 100 µM

COC(=O)/C=C(/C(=O)OC)c1c(C)cc2c(C)cc(C)cc(C)c1-2
inactive: KM12 5.11 µM | OVCAR-3 10.2 µM | K562 4.45 µM | HT-29 7.41 µM | SK-MEL-5 8.15 µM | NCI-H460 19.9 µM | ACHN 20.4 µM | OVCAR-5 18.9 µM | RXF 393 18.8 µM | SNB-19 9.89 µM | COLO 205 7.24 µM | NCI-H226 21.1 µM | CAKI-1 32.6 µM | SR 4.19 µM | BT-549 15 µM | Malme-3M 11.5 µM

C[C@]12C(=O)OC[C@H](c3ccccc3)N1C(=O)N(Cc1ccccc1)[C@@H]2CO
inactive: KM12 > 100 µM | OVCAR-3 > 100 µM | K562 > 100 µM | HT-29 > 100 µM | SK-MEL-5 > 100 µM | NCI-H460 > 100 µM | ACHN > 100 µM | OVCAR-5 > 100 µM | RXF 393 > 100 µM | SNB-19 > 100 µM | COLO 205 > 100 µM | NCI-H226 > 100 µM | CAKI-1 > 100 µM | SR > 100 µM | BT-549 > 100 µM | Malme-3M > 100 µM

CC(=O)OCC1(C)C(O)CCC2(C)C1CCC1CC3CC12CCC3(O)CO (configuration not stated)
inactive: KM12 > 100 µM | OVCAR-3 > 100 µM | K562 > 100 µM | HT-29 34.3 µM | SK-MEL-5 > 79.4 µM | NCI-H460 6.75 µM | ACHN 4.46 µM | OVCAR-5 > 100 µM | RXF 393 > 100 µM | SNB-19 > 100 µM | COLO 205 > 100 µM | NCI-H226 > 100 µM | CAKI-1 17.9 µM | SR 4.42 µM | BT-549 > 86.3 µM | Malme-3M > 100 µM

O=C(OCCN=C1c2ccccc2CCc2ccccc21)c1cc([N+](=O)[O-])cc([N+](=O)[O-])c1
inactive: KM12 28.1 µM | OVCAR-3 23.3 µM | K562 20.7 µM | HT-29 > 31.6 µM | SK-MEL-5 27.2 µM | NCI-H460 > 31.6 µM | ACHN > 31.6 µM | OVCAR-5 > 31.6 µM | RXF 393 > 31.6 µM | SNB-19 > 31.6 µM | COLO 205 > 31.6 µM | NCI-H226 > 31.6 µM | CAKI-1 29.3 µM | SR 3.52 µM | BT-549 > 100 µM | Malme-3M > 31.6 µM

C[N+](C)(C)CCN[N+]1(C)CCCc2ccccc21 (configuration not stated)
inactive: KM12 > 100 µM | OVCAR-3 > 100 µM | K562 39 µM | HT-29 > 100 µM | SK-MEL-5 > 100 µM | NCI-H460 > 100 µM | ACHN > 100 µM | OVCAR-5 > 100 µM | RXF 393 36 µM | SNB-19 > 100 µM | COLO 205 36.2 µM | NCI-H226 54.1 µM | CAKI-1 > 100 µM | SR 50.2 µM | BT-549 > 100 µM | Malme-3M 23 µM

Cc1c(C(=O)c2ccc(N)c3ccccc23)c2ccccc2n1CCN1CCOCC1
inactive: KM12 3.38 µM | OVCAR-3 15.7 µM | K562 25.5 µM | HT-29 22.4 µM | SK-MEL-5 15.5 µM | NCI-H460 3.4 µM | ACHN 31.4 µM | OVCAR-5 25.9 µM | RXF 393 24.2 µM | SNB-19 21.5 µM | COLO 205 27.5 µM | NCI-H226 32.1 µM | CAKI-1 7.85 µM | SR > 32.8 µM | BT-549 27.4 µM | Malme-3M 18.3 µM

COC1(OC)CC(CO)(CNc2nc(N)nc(Cl)c2/C=N\O)C1
inactive: KM12 7.05 µM | OVCAR-3 21.7 µM | K562 17.7 µM | HT-29 38.4 µM | SK-MEL-5 43.1 µM | NCI-H460 37.4 µM | ACHN 24.6 µM | OVCAR-5 20.7 µM | RXF 393 18.7 µM | SNB-19 40.7 µM | COLO 205 38.6 µM | NCI-H226 29.6 µM | CAKI-1 57.4 µM | SR 13.4 µM | BT-549 25.3 µM | Malme-3M 20.8 µM
